Holding throughout (format): biochemical
Assay [1] deals with T1, Aurora-2 (Homo sapiens, UniProt O14965).
T1 construct: addition of 10 μL of Aurora-2 stock solution to give a final concentration of 70 nM
T1 sequence (O14965 1-403): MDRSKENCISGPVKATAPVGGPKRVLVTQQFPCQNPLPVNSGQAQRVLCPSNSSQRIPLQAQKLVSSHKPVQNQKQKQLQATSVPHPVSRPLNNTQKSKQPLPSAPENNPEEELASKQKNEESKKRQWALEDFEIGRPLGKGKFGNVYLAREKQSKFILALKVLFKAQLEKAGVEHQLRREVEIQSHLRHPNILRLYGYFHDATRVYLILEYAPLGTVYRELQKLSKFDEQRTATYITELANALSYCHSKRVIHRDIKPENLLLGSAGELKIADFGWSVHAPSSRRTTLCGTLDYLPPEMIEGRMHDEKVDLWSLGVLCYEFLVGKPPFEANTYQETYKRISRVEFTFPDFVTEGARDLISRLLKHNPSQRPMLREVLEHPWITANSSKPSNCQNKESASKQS
The assay can be described thus: Inhibition of AUR-2, coupled enzyme assay. Conditions: 70 nM Aurora-2, 800 μM peptide LRRASLG, 30° C. The procedure: Compounds are screened in the following manner for their ability to inhibit Aurora-2 using a standard coupled enzyme assay (Fox et al. (1998) Protein Sci 7, 2249). To an assay stock buffer solution containing 0.1M HEPES 7.5, 10 mM MgCl2, 1 mM DTT, 25 mM NaCl, 2.5 mM phosphoenolpyruvate, […], […], […], and 800 μM peptide (LRRASLG, American Peptide, Sunnyvale, Calif.) is added a DMSO solution of a compound of the present invention to a final concentration of 30 μM. The resulting mixture is incubated at 30° C. for 10 min. The reaction was initiated by the addition of 10 μL of Aurora-2 stock solution to give a final concentration of 70 nM in the assay. The rates of reaction are obtained by monitoring absorbance at 340 nm over a 5 minute read time at 30° C. using a BioRad Ultramark plate reader (Hercules, Calif.). The Ki values are determined from the rate data as a function of inhibitor concentration.

In assay [2] the target is T2, c-KIT (Homo sapiens, UniProt P10721).
T2 construct: 0.02% BSA and 25 nM c-KIT
T2 sequence (P10721 26-976): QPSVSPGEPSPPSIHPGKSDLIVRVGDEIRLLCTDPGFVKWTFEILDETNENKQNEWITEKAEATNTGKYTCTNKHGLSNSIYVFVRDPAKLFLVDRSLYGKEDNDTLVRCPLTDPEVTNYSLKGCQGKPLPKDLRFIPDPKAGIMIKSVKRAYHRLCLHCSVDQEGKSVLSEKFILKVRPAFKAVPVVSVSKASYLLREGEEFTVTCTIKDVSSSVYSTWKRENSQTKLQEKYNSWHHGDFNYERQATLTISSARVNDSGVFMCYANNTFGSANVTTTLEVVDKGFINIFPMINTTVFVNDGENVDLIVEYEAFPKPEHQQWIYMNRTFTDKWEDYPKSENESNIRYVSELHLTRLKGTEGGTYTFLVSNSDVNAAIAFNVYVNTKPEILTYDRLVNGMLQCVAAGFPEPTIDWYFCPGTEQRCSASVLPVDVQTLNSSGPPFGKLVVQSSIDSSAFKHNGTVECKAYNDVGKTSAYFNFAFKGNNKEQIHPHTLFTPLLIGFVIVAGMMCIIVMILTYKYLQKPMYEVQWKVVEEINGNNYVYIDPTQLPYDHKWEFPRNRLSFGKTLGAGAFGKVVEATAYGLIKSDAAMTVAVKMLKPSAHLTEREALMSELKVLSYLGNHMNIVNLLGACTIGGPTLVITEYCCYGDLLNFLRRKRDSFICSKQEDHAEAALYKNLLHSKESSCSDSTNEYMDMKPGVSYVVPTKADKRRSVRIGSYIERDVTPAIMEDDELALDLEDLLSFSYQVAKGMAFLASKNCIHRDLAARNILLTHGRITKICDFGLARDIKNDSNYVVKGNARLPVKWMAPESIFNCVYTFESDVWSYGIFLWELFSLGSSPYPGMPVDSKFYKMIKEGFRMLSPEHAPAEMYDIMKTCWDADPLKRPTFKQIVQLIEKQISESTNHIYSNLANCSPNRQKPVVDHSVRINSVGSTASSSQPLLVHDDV
The assay can be described thus: Inhibition of c-KIT, radiometric filter-binding assay. Conditions: 700 μM ATP, 0.5 mg/mL pE4Y, room temperature. The method in brief: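 Radiometric filter-binding: 25 nM c-KIT (enzyme in the Solution 2 mix) with poly(Glu,Tyr) 4:1 substrate at 0.5 mg/mL and [γ-^33P]ATP at 700 μM (both final), in HEPES pH 7.5/MgCl2/NaCl/DTT/BSA with 2.5% DMSO. Incubated 20 min at room temperature, stopped with TCA, and ^33P incorporation counted on filters. 12-point titration, final compound typically 0.01-5 μM; IC50 or Ki from curve fit.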

For assay [3], the target named is SYK (Homo sapiens, UniProt P43405). The assay can be described thus: SYK enzyme assay, coupled enzyme assay. The following applies: 200 μM ATP, 4 μM poly Gly-Tyr peptide, 30° C. The method, then: Compounds were screened for their ability to inhibit SYK using a standard coupled enzyme assay (Fox et al., Protein Sci. 1998, 7, 2249). Reactions were carried out in 100 mM HEPES (pH 7.5), 10 mM MgCl2, 25 mM NaCl, 1 mM DTT and 1.5% DMSO. Final substrate concentrations in the assay were 200 μM ATP (Sigma chemical Co.) and 4 μM poly Gly-Tyr peptide (Sigma Chemical Co.). Assays were carried out at 30° C. and 200 nM SYK. Final concentrations of the components of the coupled enzyme system were 2.5 mM phosphoenolpyruvate, 300 μM NADH, 30 μg/ml pyruvate kinase and 10 μg/ml lactate dehydrogenase.
An assay stock buffer solution was prepared containing all of the reagents listed above, with the exception of SYK, DTT, and the test compound of interest of the present invention. 56 μl of the test reaction was placed in a 96 well plate followed by the addition of 1 μl of 2 mM DMSO stock containing the test compound of the present invnetion (final compound concentration 30 μM). The plate was pre-incubated for ˜10 minutes at 30° C. and the reaction initiated by the addition of 10 μl of enzyme (final concentration 25 nM). Rates of reaction were obtained using a BioRad Ultramark plate reader (Hercules, Calif.) over a 5 minute read time at 30° C., and Ki values for the compounds of the present invention were determined according to standard methods.

On to `Clc1cccc(-c2cnoc2-c2c[nH]c3ncccc23)c1Cl` [Compound 2, 3-[4-(2,3-Dichloro-phenyl)-isoxazol-5-yl]-1H-pyrrolo[2,3-b]pyridine], for which, in assay [1], the inhibition constant (Ki) (commonly the equilibrium dissociation constant of an inhibitor or competing ligand from its target) was in the range of 0.2 to 1 µM.
The compound `c1cnc2[nH]cc(-c3oncc3C3CCCCC3)c2c1` [Compound 47, 3-(4-Cyclohexyl-isoxazol-5-yl)-1H-pyrrolo[2,3-b]pyridine] had a Ki in assay [1] of 0.2 to 1 µM.
Consider `Oc1cnc2[nH]cc(-c3oncc3-c3cccc(Cl)c3Cl)c2c1` [Compound 48, 3-[4-(2,3-Dichloro-phenyl)-isoxazol-5-yl]-1H-pyrrolo[2,3-b]pyridin-5-ol], for which the inhibition constant (Ki) in assay [1] and in assay [2] was 0.2 to 1 µM in each case.
Consider `COc1cnc2[nH]cc(-c3oncc3-c3cccc(Cl)c3Cl)c2c1` [Compound 49, 3-[4-(2,3-Dichloro-phenyl)-isoxazol-5-yl]-5-methoxy-1H-pyrrolo[2,3-b]pyridine], for which the inhibition constant (Ki) in assay [1] and in assay [2] was less than 0.2 µM throughout.
As to `Fc1cccc(-c2cnoc2-c2c[nH]c3ncc(-c4ccncc4)cc23)c1F` [Compound 57, 3-[4-(2,3-Difluoro-phenyl)-isoxazol-5-yl]-5-pyridin-4-yl-1H-pyrrolo[2,3-b]pyridine], the inhibitory constant (Ki) in assay [1] and in assay [2] was less than 0.2 µM throughout.
As to `Fc1cccc(-c2cnoc2-c2c[nH]c3ncc(-c4ccccc4)cc23)c1F` [Compound 58, 3-[4-(2,3-Difluoro-phenyl)-isoxazol-5-yl]-5-phenyl-1H-pyrrolo[2,3-b]pyridine], the inhibition constant (Ki) in assay [1] was in the range of 0.2 to 1 µM.
`Fc1cccc(-c2cnoc2-c2c[nH]c3ncc(-c4cccnc4)cc23)c1F` [Compound 59, 3-[4-(2,3-Difluoro-phenyl)-isoxazol-5-yl]-5-pyridin-3-yl-1H-pyrrolo[2,3-b]pyridine]: the Ki in assay [1] and in assay [2] was less than 0.2 µM in each case.
Take `CN(C)c1cccc(-c2cnc3[nH]cc(-c4oncc4-c4cccc(F)c4F)c3c2)c1` [Compound 61, (3-{3-[4-(2,3-Difluoro-phenyl)-isoxazol-5-yl]-1H-pyrrolo[2,3-b]pyridin-5-yl}-phenyl)-dimethyl-amine]: the Ki was 1 to 12.5 µM in assay [3] and less than 0.2 µM in assay [2].
Consider `O=c1ccc(-c2cnc3[nH]cc(-c4oncc4-c4cccc(F)c4F)c3c2)c[nH]1` [Compound 67, 5-{3-[4-(2,3-Difluoro-phenyl)-isoxazol-5-yl]-1H-pyrrolo [2,3-b]pyridin-5-yl}-1H-pyridin-2-one], for which the figures for the Ki in assay [3] and in assay [2] were 0.2 to 1 µM and less than 0.2 µM, respectively.
For the compound `Fc1cccc(-c2cnoc2-c2c[nH]c3ncc(-c4ccccn4)cc23)c1F` [Compound 73, 3-(4-(2,3-Difluoro-phenyl)-isoxazol-5-yl)-5-pyridin-2-yl-1H-pyrrolo[2,3-b]pyridine], the Ki in assay [3] is 1 to 12.5 µM; in assay [2], less than 0.2 µM.
Take `Fc1cccc(-c2cnoc2-c2c[nH]c3ncc(-c4ncccn4)cc23)c1F` [Compound 75, 3-[4-(2,3-Difluoro-phenyl)-isoxazol-5-yl]-5-pyrimidin-2-yl-1H-pyrrolo[2,3-b]pyridine]: the inhibition constant Ki in assay [1] is 0.2 to 1 µM.
As to `Fc1cccc(-c2cnoc2-c2c[nH]c3ncc(-c4cnc5[nH]ccc5c4)cc23)c1F` [Compound 77, 3-[4-(2,3-Difluoro-phenyl)-isoxazol-5-yl]-1H,1′H-[5,5′]bi[pyrrolo[2,3-b]pyridinyl]], the results for the Ki in assay [3] and in assay [2] were 0.2 to 1 µM and less than 0.2 µM, respectively.
For the compound `Nc1ccnc(-c2cnc3[nH]cc(-c4oncc4-c4cccc(F)c4F)c3c2)c1` [Compound 83, 2-{3-[4-(2,3-Difluoro-phenyl)-isoxazol-5-yl]-1H-pyrrolo [2,3-b]pyridin-5-yl}-pyridin-4-ylamine], the Ki is 0.2 to 1 µM in assay [1] and less than 0.2 µM in assay [2].
Consider `CN(C)Cc1ccc(-c2cnc3[nH]cc(-c4oncc4-c4cccc(F)c4F)c3c2)nc1` [Compound 84, (6-{3-[4-(2,3-Difluoro-phenyl)-isoxazol-5-yl]-1H-pyrrolo[2,3-b]pyridin-5-yl}-pyridin-3-ylmethyl)-dimethyl-amine], for which the inhibition constant (Ki) in assay [3] is 1 to 12.5 µM; in assay [2], less than 0.2 µM.
Turning to `Oc1cccc(-c2cnc3[nH]cc(-c4oncc4-c4cccc(F)c4F)c3c2)c1` [Compound 87, 3-{3-[4-(2,3-Difluoro-phenyl)-isoxazol-5-yl]-1H-pyrrolo [2,3-b]pyridin-5-yl}-phenol], the Ki in assay [1] and in assay [2] was less than 0.2 µM each time.
On to `CN(C)c1ccc(-c2cnc3[nH]cc(-c4oncc4-c4cccc(F)c4F)c3c2)cc1` [Compound 88, (4-{3-[4-(2,3-Difluoro-phenyl)-isoxazol-5-yl]-1H-pyrrolo[2,3-b]pyridin-5-yl}-phenyl)-dimethyl-amine], for which the Ki is 1 to 12.5 µM in assay [3] and less than 0.2 µM in assay [2].
With `Fc1cccc(-c2cnoc2-c2c[nH]c3ncc(-c4ccc(CN5CCOCC5)cc4)cc23)c1F` [Compound 92, 3-[4-(2,3-Difluoro-phenyl)-isoxazol-5-yl]-5-(4-morpholin-4-ylmethyl-phenyl)-1H-pyrrolo[2,3-b]pyridine], the inhibition constant Ki in assay [1] and in assay [2] was less than 0.2 µM each time.
As for `CN1CCN(Cc2ccc(-c3cnc4[nH]cc(-c5oncc5-c5cccc(F)c5F)c4c3)cc2)CC1` [Compound 94, 3-[4-(2,3-Difluoro-phenyl)-isoxazol-5-yl]-5-[4-(4-methyl-piperazin-1-ylmethyl)-phenyl]-1H-pyrrolo[2,3-b]pyridine], the inhibitory constant (Ki) in assay [1] and in assay [2] was less than 0.2 µM in each case.
Regarding `CC(=O)Nc1ccc(-c2cnc3[nH]cc(-c4oncc4-c4cccc(F)c4F)c3c2)cc1` [Compound 95, N-(4-{3-[4-(2,3-Difluoro-phenyl)-isoxazol-5-yl]-1H-pyrrolo[2,3-b]pyridin-5-yl}-phenyl)-acetamide], the Ki in assay [1] and in assay [2] was less than 0.2 µM throughout.
As to `COc1cncc(-c2cnc3[nH]cc(-c4oncc4-c4cccc(F)c4F)c3c2)c1` [Compound 96, 3-[4-(2,3-Difluoro-phenyl)-isoxazol-5-yl]-5-(5-methoxy-pyridin-3-yl)-1H-pyrrolo[2,3-b]pyridine], the Ki in assay [1] and in assay [2] was less than 0.2 µM throughout.
As to `CN(C)c1ccc(-c2cnc3[nH]cc(-c4nncn4-c4cccc(F)c4F)c3c2)cc1` [Compound 106, (4-{3-[4-(2,3-Difluoro-phenyl)-4H-[1,2,4]triazol-3-yl]-1H-pyrrolo[2,3-b]pyridin-5-yl}-phenyl)-dimethyl-amine], the Ki is 1 to 12.5 µM in assay [3] and less than 0.2 µM in assay [2].
Compound `Fc1cccc(-c2cnoc2-c2c[nH]c3ncc(/C=C/n4cncn4)cc23)c1F` [Compound 133, 3-[4-(2,3-Difluoro-phenyl)-isoxazol-5-yl]-5-(2-[1,2,4]triazol-1-yl-vinyl)-1H-pyrrolo[2,3-b]pyridine] displayed a Ki in assay [3] of 1 to 12.5 µM.
Consider `Cc1noc(-c2c[nH]c3ncc(-c4ccc(N5CCN(C)CC5)cc4)cc23)c1-c1cccc(F)c1F` [Compound 135, 3-[4-(2,3-Difluoro-phenyl)-3-methyl-isoxazol-5-yl]-5-[4-(4-methyl-piperazin-1-yl)-phenyl]-1H-pyrrolo[2,3-b]pyridine], for which the Ki in assay [3] was 0.2 to 1 µM; in assay [2] it was less than 0.2 µM.
`O=c1[nH]ccc2c(-c3oncc3-c3cccc(F)c3F)c[nH]c12` [Compound 145, 3-[4-(2,3-Difluoro-phenyl)-isoxazol-5-yl]-1,6-dihydro-pyrrolo[2,3-c]pyridin-7-one] yielded a Ki in assay [1] of 0.2 to 1 µM.

Source of the values: patent US7446199B2, “Compositions useful as inhibitors of protein kinases” (Vertex Pharmaceuticals Incorporated, priority 2003, dated 2008).
